Tests used:
[1] = DRUGMATRIX: Glutamate, Kainate radioligand binding (ligand: [3H] Kainic acid); type: cell membranes, Rattus norvegicus, Wistar, Brain, Membrane; conditions: Not Active = under 50% inhibition at 10 µM
[2] = DRUGMATRIX: Sigma2 radioligand binding (ligand: [3H] Ifenprodil); type: cell membranes, Rattus norvegicus, Wistar, Brain, Membrane; conditions: Not Active = under 50% inhibition at 10 µM
[3] = biological target: 5-hydroxytryptamine receptor 2B (Homo sapiens, UniProt P41595); type: cell membranes, CHO-K1, Membrane; conditions: cho-k1; further: in other assays of this panel Not Active means under 50% inhibition at 10 µM
[4] = biological target: Cytochrome P450 2C9 (Homo sapiens, UniProt P11712); conditions: bti-tn-5b1-4; further: in other assays of this panel Not Active means under 50% inhibition at 10 µM
[5] = biological target: T1, Adenosine receptor A1 (Homo sapiens, UniProt P30542); type: cell membranes, CHO, Membrane; conditions: cho;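 further: radioligand binding assay at the adenosine A1 receptor, with DPCPX serving as the labelled ligand; in other assays of this panel Not Active means under 50% inhibition at 10 µM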
T1 sequence (P30542 whole entry): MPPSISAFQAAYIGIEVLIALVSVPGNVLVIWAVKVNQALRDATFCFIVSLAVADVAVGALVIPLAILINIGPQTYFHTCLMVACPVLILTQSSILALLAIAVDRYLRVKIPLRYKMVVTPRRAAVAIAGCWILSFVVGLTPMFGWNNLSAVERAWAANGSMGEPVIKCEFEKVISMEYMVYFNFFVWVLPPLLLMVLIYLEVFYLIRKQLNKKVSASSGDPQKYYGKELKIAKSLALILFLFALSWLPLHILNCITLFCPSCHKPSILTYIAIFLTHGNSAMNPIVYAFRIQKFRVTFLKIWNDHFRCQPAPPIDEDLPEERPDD

[6] = biological target: Kappa-type opioid receptor (Homo sapiens, UniProt P41145); assay: DRUGMATRIX: Opiate kappa (OP2, KOP) radioligand binding (ligand: [3H] Diprenorphine); type: cell membranes, HEK293, Membrane; conditions: hek293; Not Active = under 50% inhibition at 10 µM
Kappa-type opioid receptor, sequence (P41145 whole entry): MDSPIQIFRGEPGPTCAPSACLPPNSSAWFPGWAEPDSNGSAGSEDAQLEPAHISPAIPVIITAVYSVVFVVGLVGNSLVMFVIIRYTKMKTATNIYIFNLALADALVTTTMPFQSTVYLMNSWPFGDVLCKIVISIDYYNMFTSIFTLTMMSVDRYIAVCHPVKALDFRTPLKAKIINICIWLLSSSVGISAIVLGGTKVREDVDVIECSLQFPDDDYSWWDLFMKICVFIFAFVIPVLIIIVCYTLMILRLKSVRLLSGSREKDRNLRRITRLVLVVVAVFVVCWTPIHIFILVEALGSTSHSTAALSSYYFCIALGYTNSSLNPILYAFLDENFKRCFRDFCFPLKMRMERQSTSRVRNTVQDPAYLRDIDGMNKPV

5-hydroxytryptamine receptor 2B, sequence (P41595 whole entry): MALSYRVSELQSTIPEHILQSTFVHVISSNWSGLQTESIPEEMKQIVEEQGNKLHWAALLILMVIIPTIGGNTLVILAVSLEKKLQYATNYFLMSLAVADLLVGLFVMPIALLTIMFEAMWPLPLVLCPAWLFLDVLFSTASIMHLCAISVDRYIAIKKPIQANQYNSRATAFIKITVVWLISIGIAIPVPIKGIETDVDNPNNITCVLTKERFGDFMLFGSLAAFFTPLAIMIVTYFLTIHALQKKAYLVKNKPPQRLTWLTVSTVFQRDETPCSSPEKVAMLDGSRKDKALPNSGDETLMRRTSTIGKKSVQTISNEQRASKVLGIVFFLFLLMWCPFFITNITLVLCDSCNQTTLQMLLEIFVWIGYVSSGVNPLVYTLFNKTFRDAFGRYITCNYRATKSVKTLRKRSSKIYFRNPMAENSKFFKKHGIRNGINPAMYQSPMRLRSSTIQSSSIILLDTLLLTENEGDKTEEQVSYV
Cytochrome P450 2C9, sequence (P11712 whole entry): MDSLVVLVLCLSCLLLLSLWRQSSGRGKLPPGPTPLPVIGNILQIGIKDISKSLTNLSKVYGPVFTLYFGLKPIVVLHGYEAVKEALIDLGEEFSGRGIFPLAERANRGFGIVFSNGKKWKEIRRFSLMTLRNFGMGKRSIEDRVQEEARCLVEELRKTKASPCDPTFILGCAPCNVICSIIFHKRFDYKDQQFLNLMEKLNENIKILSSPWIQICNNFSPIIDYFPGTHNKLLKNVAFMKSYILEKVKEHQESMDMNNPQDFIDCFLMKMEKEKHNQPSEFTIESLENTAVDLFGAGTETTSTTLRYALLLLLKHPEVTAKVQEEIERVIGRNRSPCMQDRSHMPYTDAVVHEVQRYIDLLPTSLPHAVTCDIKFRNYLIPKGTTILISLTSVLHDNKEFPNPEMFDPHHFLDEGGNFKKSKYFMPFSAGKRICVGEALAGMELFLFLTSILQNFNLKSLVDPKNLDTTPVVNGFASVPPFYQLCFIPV

CCc1ccc(CCOc2ccc(CC3SC(=O)NC3=O)cc2)nc1 (stereo not drawn) [PIOGLITAZONE]
Not Active: IC50 [1] | Ki [1] | IC50 [2] | Ki [2] | IC50 [3] | IC50 [4] | Ki [4] | IC50 [5] | IC50 [6]

CCCNC(C)C(=O)Nc1ccccc1C (stereo not drawn) [PRILOCAINE]
Not Active: IC50 [1] | Ki [1] | IC50 [2] | Ki [2] | IC50 [3] | IC50 [4] | Ki [4] | IC50 [5] | IC50 [6]

CCN(CC)CCNC(=O)c1ccc(N)cc1 [PROCAINAMIDE]
Not Active: IC50 [1] | Ki [1] | IC50 [2] | Ki [2] | IC50 [3] | IC50 [4] | Ki [4] | IC50 [5] | IC50 [6]

CCN(CC)CCCC(C)Nc1c2ccc(Cl)cc2nc2ccc(OC)cc12 (stereo not drawn) [QUINACRINE]
Not Active: IC50 [1] | Ki [1] | IC50 [2] | Ki [2] | IC50 [3] | IC50 [4] | Ki [4] | IC50 [5] | IC50 [6]

C[C@]12C=CC(=O)C=C1CC[C@H]1[C@@H]3C[C@@H](O)[C@](O)(C(=O)CO)[C@@]3(C)C[C@H](O)[C@@]12F [TRIAMCINOLONE]
Not Active: IC50 [1] | Ki [1] | IC50 [2] | Ki [2] | IC50 [3] | IC50 [4] | Ki [4] | IC50 [5] | IC50 [6]

CC[C@]1(O)C[C@@H]2CN(CCc3c([nH]c4ccccc34)[C@@](C(=O)OC)(c3cc4c(cc3OC)N(C)[C@H]3[C@@](O)(C(N)=O)[C@H](O)[C@]5(CC)C=CCN6CC[C@]43[C@@H]65)C2)C1 [VINDESINE]
Not Active: IC50 [1] | Ki [1] | IC50 [2] | Ki [2] | IC50 [3] | IC50 [4] | Ki [4] | IC50 [5] | IC50 [6]

CCN(C(C)=O)c1cccc(-c2ccnc3c(C#N)cnn23)c1 [ZALEPLON]
Not Active: IC50 [1] | Ki [1] | IC50 [2] | Ki [2] | IC50 [3] | IC50 [4] | Ki [4] | IC50 [5] | IC50 [6]

From ChEMBL document CHEMBL1909046, “DrugMatrix in vitro pharmacology data”
